The source of these data is patent US20160046616A1, “NRF2 SMALL MOLECULE INHIBITORS FOR CANCER THERAPY” (THE JOHNS HOPKINS UNIVERSITY, priority 2013, published 2016).

Structures are written as SMILES.

Assay [1] has as its system A549 NRF2-ARE-Fluc stable cell line. The experiment in a line: A549 Nrf2 assay: NRF2-ARE firefly luciferase reporter gene assay. Format: cell-based. The conditions noted are these: Homo sapiens, read-out: Potency of inhibition, A549. The source says: A549, the parental cell line, is a non-small-cell lung cancer (NSCLC) cell line with loss-of-function (LOF) Keap1 activity, thus NRF2 transcription factor constitutively translocates into the nucleus to activate the expression of downstream target genes of NRF2. A firefly luciferase reporter (Fluc) construct driven by a minimal promoter of NRF2-specific anti-oxidant responsive element (ARE) is stably expressed in the A549 cells. Compounds that reduce the translocation of NRF2 into the nucleus or prevent the interaction between NRF2 and ARE will lead to a decrease in luciferase activity.
The final concentration of DMSO was maintained at 0.46%. Control compounds Budesonide and Staurosporine were both added at a concentration of 2 mM and Budesonide also was added as a 1:10 titration, starting at 200 μM, to achieve dose-response. After an 18-24 hour incubation at 37° C., 95% humidity, and 5% CO2, 1 μL of 5× CellTiter-Fluor non-lytic cell viability assay reagent (Promega, Madison, Wis.) was added into the each well of the plates. The plates were then incubated for 30 minutes at room temperature before they were read on a ViewLux plate imager (Perkin Elmer, Waltham, Mass.) using an excitation wavelength of 405 nm and an emission wavelength of 525 nm.
A cell based reporter assay approach was used for the identification of agents that could inhibit Nrf2 mediated gene expression (FIG. 1). A549-ARE-luciferase cells express the luciferase gene driven by a minimal promoter and an enhancer element containing an NRF2 binding site (Antioxidant Response Element, ARE).
(§1) Representative compounds were assayed to assess the potency of inhibition in an A549 NRF2-ARE-Fluc stable cell line (A549 Nrf2 assay), in an H838 NRF2-ARE-Fluc stable cell line (H838 Nrf2 assay), and in an H1437 NRF2-ARE-Fluc stable cell line (H1437 Nrf2 assay) (see Table 3).
Background: A reporter such as luciferase makes a cellular process visible.

Assay [2] has as its system H1437 NRF2-ARE-Fluc stable cell line. Nature of the assay: H1437 Nrf2 assay: NRF2-ARE firefly luciferase reporter gene assay. Format: cell-based. The conditions noted are these: Homo sapiens, NCI-H1437, H1437 NRF2-ARE-Fluc stable cell line; read-out: Potency of inhibition, H1437.
Source text: H1437 is another NSCLC cell line with LOF Keap1 activity and constitutive translocation of NRF2 into the nucleus. A firefly luciferase reporter construct driven by a minimal promoter of NRF2-specific ARE is stably expressed in the H1437 cells. This cell line was used as a confirmation assay to make sure hits identified from primary screening and that passed counterscreen assays worked in different cell types with a constitutively active NRF2 pathway (deficiency in Keap1).
This assay was very similar to the primary assay except that the cell line was changed. […] The final concentration of DMSO was maintained at 0.46%. Control compounds Budesonide and Staurosporine were both added at a concentration of 2 mM and Budesonide was also added as a 1:10 titration, starting at 200 μM, to achieve dose-response. After an 18-24 hour incubation at 37° C., 95% humidity, and 5% CO2, 1 μL of 5× CellTiter-Fluor non-lytic cell viability assay reagent (Promega, Madison Wis.) was added into the each well of the plates. The plates were then incubated for 30 minutes at room temperature before they were read on a ViewLux plate imager (Perkin Elmer, Waltham Mass.) using an excitation wavelength of 405 nm and an emission wavelength of 525 nm.
as §1

On to `O=C(Nc1ncc(Cc2ccc(C(F)(F)F)cc2)s1)c1ccc(-c2cccnc2)o1` [Compound 27], for which the IC50 in assay [1] was 5 to 25 µM; in assay [2], < 5 µM.

As to `O=C(Nc1ccc(S(=O)(=O)N2CCOCC2)cc1)c1ccc(CN2CCCC(c3ccccc3)C2)cc1` (stereo not drawn) [Compound 207], the IC50 in assay [1] and in assay [2] was 5 to 25 µM throughout.

Turning to `COc1ccccc1C(=O)N1CCc2cc(-c3nc(NC(=O)Cc4ccc5c(c4)OCO5)sc3C)ccc21` [Compound 120], the IC50 in assay [1] was < 5 µM; in assay [2] it was > 25 µM.

For the compound `CC1CN(S(=O)(=O)c2ccc(NC(=O)c3ccc(CN4CCc5ccccc5C4)cc3)cc2)CC(C)O1` (stereo not drawn) [compound 155], the IC50 in assay [1] and in assay [2] was < 5 µM each time.

Consider `O=C(Nc1ccc(S(=O)(=O)NC2CCOCC2)cc1)c1ccc(CN2CCc3ccccc3C2)cc1` [compound 176], for which the values for the IC50 in assay [1] and in assay [2] were < 5 µM and 5 to 25 µM, respectively.

For `COc1ccc(Cc2cnc(NC(=O)c3ccn(-c4ccccc4)n3)s2)cc1` [Compound 223], the IC50 in assay [1] and in assay [2] was 5 to 25 µM each time.

Regarding `Cc1ccccc1C(=O)N1CCc2cc(-c3nc(NC(=O)Cc4ccc5ccccc5c4)sc3C)ccc21` [Compound 9], the IC50 was < 5 µM in assay [1] and 5 to 25 µM in assay [2].

For the compound `O=C(Nc1ccc(S(=O)(=O)N2CCOCC2)cc1)c1ccc(CCN2CCc3ccccc3C2)cc1` [compound 166], the IC50 was < 5 µM in assay [1] and 5 to 25 µM in assay [2].

On to `Cc1ccccc1S(=O)(=O)N1CCc2cc(-c3nc(NC(=O)Cc4cccc(C(F)(F)F)c4)sc3C)ccc21` [Compound 132], for which the IC50 in assay [1] and in assay [2] was 5 to 25 µM each time.

For `COc1ccc(CC(=O)Nc2nc(-c3ccc4c(c3)CC(C)N4C(=O)c3ccccc3C)c(C)s2)cc1` (stereo not drawn) [Compound 232], the IC50 in assay [1] and in assay [2] was 5 to 25 µM each time.

Regarding `O=C(Nc1ccc(N2CCOCC2)cc1)c1ccc(CN2CCc3ccccc3C2)cc1` [compound 149], the IC50 in assay [1] is < 5 µM; in assay [2], > 25 µM.

For the compound `Cc1sc(NC(=O)Cc2ccc3c(c2)OCO3)nc1-c1ccc2c(c1)CCN2C(=O)c1cncn1C` [Compound 161], the IC50 in assay [1] and in assay [2] was < 5 µM each time.

As to `Cc1noc(C)c1C(=O)N1CCc2cc(-c3nc(NC(=O)Cc4ccc5c(c4)OCO5)sc3C)ccc21` [Compound 183], the IC50 in assay [1] and in assay [2] was < 5 µM in each case.

As to `O=C(Cc1ccccc1)Nc1ccc(Cl)nc1` [Compound 106, N-(6-chloropyridin-3-yl)-2-phenylacetamide], the IC50 in assay [1] and in assay [2] was > 25 µM throughout.

As for `Cc1ccccc1C(=O)N1CCc2cc(N3CCC(NC(=O)Cc4ccccc4)C3)ccc21` (stereo not drawn) [Compound 96], the IC50 in assay [1] and in assay [2] was 5 to 25 µM in each case.

Regarding `Cc1ccccc1C(=O)N1CCc2cc(-c3nc(NC(=O)Cc4ccc5c(c4)OCCO5)sc3C)ccc21` [Compound 5], the results for the IC50 in assay [1] and in assay [2] were 5 to 25 µM and < 5 µM, respectively.

On to `Cc1ccccc1S(=O)(=O)N1CCc2cc(-c3nc(NC(=O)Cc4ccccc4Cl)sc3C)ccc21` [Compound 123], for which the IC50 in assay [1] is < 5 µM; in assay [2], > 25 µM.

Consider `Cc1ccccc1C(=O)N1CCc2cc(-c3nc(NC(=O)Cc4ccc(OCCOCCOCCNC(=O)OC(C)(C)C)cc4)sc3C)ccc21` [Compound 236, tert-butyl (2-(2-(2-(4-(2-((5-methyl-4-(1-(2-methylbenzoyl)indolin-5-yl)thiazol-2-yl)amino)-2-oxoethyl)phenoxy)ethoxy)ethoxy)ethyl)carbamate], for which the IC50 in assay [1] and in assay [2] was < 5 µM each time.

Take `O=C(Nc1ccc(S(=O)(=O)N2CCNCC2)cc1)c1ccc(CN2CCc3ccccc3C2)cc1` [compound 154]: the results for the IC50 in assay [1] and in assay [2] were 5 to 25 µM and > 25 µM, respectively.

For `Cc1ccccc1C(=O)N1CCc2cc(-c3nc(NC(=O)CC4CCN(C(=O)OC(C)(C)C)CC4)sc3C)ccc21` [Compound 60, tert-butyl 4-(2-((5-methyl-4-(1-(2-methylbenzoyl)indolin-5-yl)thiazol-2-yl)amino)-2-oxoethyl)piperidine-1-carboxylate], the IC50 in assay [1] and in assay [2] was < 5 µM in each case.

As for `Cc1ccccc1S(=O)(=O)N1CCc2cc(-c3nc(NC(=O)Cc4cccnc4)sc3C)ccc21` [Compound 130], the IC50 in assay [1] and in assay [2] was < 5 µM throughout.

With `O=C(Nc1ccc(S(=O)(=O)N2CCOC(c3ccccc3)C2)cc1)c1ccc(CN2CCc3ccccc3C2)cc1` (stereo not drawn) [compound 171], the results for the IC50 in assay [1] and in assay [2] were < 5 µM and > 25 µM, respectively.

On to `Cc1ccccc1C(=O)N1CCc2cc(-c3nc(NC(=O)CC4CCNCC4)sc3C)ccc21` [Compound 73], for which the IC50 in assay [1] was > 25 µM; in assay [2], 5 to 25 µM.

`CC(c1ccc(C(=O)Nc2ccc(S(=O)(=O)N3CCOCC3)cc2)cc1)N1CCc2ccccc2C1` (stereo not drawn) [compound 226]: the IC50 in assay [1] and in assay [2] was < 5 µM throughout.

Turning to `CCOC(=O)N1CCN(Cc2ccc(C(=O)Nc3ccc([S+](=O)([O-])N4CCOCC4)cc3)cc2)CC1` [Compound 202], the IC50 in assay [1] and in assay [2] was 5 to 25 µM in each case.

`O=C(Nc1ncc(Cc2ccc(C(F)(F)F)cc2)s1)c1ncc(-c2ccccc2)[nH]1` [Compound 151]: the IC50 in assay [1] and in assay [2] was > 25 µM in each case.

Consider `Cc1cccc(CC(=O)Nc2nc(-c3ccc4c(c3)CCN4S(=O)(=O)c3ccccc3C)c(C)s2)c1` [Compound 131], for which the IC50 in assay [1] and in assay [2] was 5 to 25 µM each time.

`O=C(Nc1ccnc(Cc2ccccc2)c1)c1ccc(-c2cccc([N+](=O)[O-])c2)o1` [Compound 177]: the IC50 in assay [1] and in assay [2] was 5 to 25 µM in each case.

For `O=C(Nc1ncc(CN2CCCCC2)s1)c1ccc(-c2cccc([N+](=O)[O-])c2)o1` [Compound 87], the IC50 in assay [1] and in assay [2] was > 25 µM in each case.

Consider `Cc1ccccc1C(=O)N1CCc2cc(-c3nc(NC(=O)Cc4ccccc4)sc3C)ccc21` [Compound 8], for which the IC50 in assay [1] and in assay [2] was < 5 µM in each case.

`CCc1ccccc1C(=O)N1CCc2cc(-c3nc(NC(=O)Cc4ccc5c(c4)OCO5)sc3C)ccc21` [Compound 113]: the IC50 was < 5 µM in assay [1] and > 25 µM in assay [2].

Regarding `CC(=O)Nc1nc(-c2ccc3c(c2)CCN3C(=O)c2ccccc2C)c(C)s1` [Compound 11], the IC50 in assay [1] is 5 to 25 µM; in assay [2], < 5 µM.

As for `Cc1cccnc1C(=O)N1CCc2cc(-c3nc(NC(=O)Cc4ccc5c(c4)OCO5)sc3C)ccc21` [Compound 141], the IC50 in assay [1] was < 5 µM; in assay [2], > 25 µM.

`O=C(Nc1ccc(S(=O)(=O)N2CCOCC2)cc1)c1ccc(CN2CCN(c3ccccc3)CC2)cc1` [Compound 203]: the IC50 in assay [1] and in assay [2] was < 5 µM throughout.

In the case of `Cc1ccccc1C(=O)N1CCc2cc(-c3csc(NC(=O)Cc4ccc5c(c4)OCO5)n3)ccc21` [Compound 2], the IC50 in assay [1] and in assay [2] was 5 to 25 µM throughout.

Consider `O=C(Nc1ccc(S(=O)(=O)N2CCOCC2c2ccccc2)cc1)c1ccc(CN2CCc3ccccc3C2)cc1` (stereo not drawn) [compound 165], for which the IC50 was < 5 µM in assay [1] and 5 to 25 µM in assay [2].

Take `CCOC(=O)N1CCN(CC(=O)Nc2nc(-c3ccc4c(c3)CCN4C(=O)c3ccccc3C)c(C)s2)CC1` [Compound 228]: the IC50 in assay [1] and in assay [2] was < 5 µM throughout.

`Cc1sc(NC(=O)Cc2ccc3c(c2)OCO3)nc1-c1ccc2c(c1)CCN2C` [Compound 26]: the IC50 in assay [1] is 5 to 25 µM; in assay [2], > 25 µM.

Regarding `Cc1sc(NC(=O)Cc2ccc3c(c2)OCO3)nc1-c1ccc2c(c1)CCN2C(=O)c1ccccc1OC(F)(F)F` [Compound 114], the IC50 was < 5 µM in assay [1] and > 25 µM in assay [2].
